The values that follow come from patent US9713613B2, “Methods and compositions for the treatment of cancer and related hyperproliferative disorders” (priority 2007, dated 2017).

The structures appear in SMILES notation.

In one experiment the test system is 3T3-L1 cells. Nature of the experiment: adipogenesis assay (formation of oil droplets). It is filed as cell-based, mouse. The arrangement: key: +: The analogues that completely inhibited the formation of oil droplets in cells were scored to be adipogenesis-inhibiting analogues. The note with it: formation of oil droplets in cells. As to the method: The adipogenesis assay was performed as described (Choi et al., 2003).

In experiment [1] the test system is endogenous SREBPs. The experiment can be described thus: Luciferase reporter assay (pSRE-Luc, normalized by β-gal) in HEK293 cells. It counts as cell-based, human. Further details: Luc/Gal: dose or concentration left out as unconfirmed. As to the method: On day 0, HEK293 cells were plated out in triplicate at a density of 5×10^3/well onto a 96-well plate in a Dulbecco's modified Eagle's medium with 10% fetal bovine serum, 100 units/mL penicillin, and 100 μg/mL streptomycin sulfate. On day 2, the cells were transiently co-transfected with the following plasmids by using Lipofectamine reagent (Invitrogen): 0.4 μg/well pSRE-Luc (an SRE-1-driven luciferase reporter construct; Hua et al., 1995 J Biol Chem 270, 29422-7), and 0.1 μg/well a b-gal reporter in which the expression of β-gal is controlled by an actin promoter in a final volume of […]. After incubation for 5 hrs at 37° C., the cells were washed with phosphate-buffered saline and then incubated in 100 μl of Dulbecco's modified Eagle's medium with 10% lipid-depleted serum, […] penicillin, and 100 μg/mL streptomycin sulfate in the absence or presence of fatostatin A. After 20 hrs of incubation, the cells in each well were lysed with 20 μL of 1× Reporter Lysis Buffer (Promega), and aliquots were used for measurement of luciferase (10 μL) and β-galactosidase (10 μL) activities. For luciferase assay, photon production was detected as counts per second in a Wallac 1420 ARVOsx multilabel counter (PerkinElmer). For β-galactosidase assays, hydrolysis of O-nitrophenyl-β-D-galactosidase was measured after incubation for 0.5 h at 37° C. by a microplate reader at the wave length of 405 nm (Tecan). The luciferase activity (counts per second) was normalized by the activity of β-galactosidase (OD units). For overexpression of the N-terminal matured form of SREBP-1c, pCMV-SREBP-1c (1-436) was co-transfected with pSRE-Luc. pSRE-Luc and pCMV-SREBP-1c (1-436) were provided by J. L. Goldstein (University of Texas Southwestern Medical Center). […]
(Reporter assays use an easily measured gene product as a stand-in for the process of interest.)

For experiment [2], the system named is endogenous SREBPs. The experiment can be described thus: SREBP activation assay (pSRE-Luc luciferase reporter) in CHO-K1 cells. It counts as cell-based, Chinese hamster. As to the method:
To confirm that fatostatin impairs the function of SREBPs, the ability of endogenous SREBPs to activate transcription of an SREBP-responsive reporter gene was measured in CHO-K1 cells in the presence or absence of fatostatin (FIG. 18A).
Luciferase reporter assay. On day 0, CHO-K1 cells were plated out onto a 96-well plate in medium A (a 1:1 mixture of Ham's F-12 medium and Dulbecco's modified Eagle's medium, with 5% fetal bovine serum, 100 units/mL penicillin, and 100 μg/mL streptomycin sulfate). On day 2, the cells were transiently co-transfected with pSRE-Luc (an SRE-1-driven luciferase reporter construct) (Hua et al., 1995) and pAc-β-gal (β-gal reporter in which the expression of β-gal is controlled by an actin promoter), using Lipofectamine reagent (Invitrogen). After incubation for 5 h, the cells were washed with phosphate-buffered saline (PBS), and then incubated, in the absence or presence of fatostatin, in medium B (a 1:1 mixture of Ham's F-12 medium and Dulbecco's modified Eagle's medium, with 5% lipid-depleted serum, 100 units/mL penicillin, 100 μg/mL streptomycin sulfate, […], and 50 mM sodium mevalonate). After 20 h of incubation, the cells in each well were lysed, and aliquots were used to measure luciferase and β-galactosidase activities. Luciferase activity was normalized by the activity of β-galactosidase. For overexpression of the N-terminal matured form of SREBP-1c, pCMV-SREBP-1c(1-436) was co-transfected with pSRE-Luc and pAc-β-gal.
Standard SREBP activation assays were performed on the exemplary compounds identified in Table 4 as per the method for Fatostatin A in Example 1. The ability of endogenous SREBPs to activate transcription of an SREBP-responsive reporter gene was measured in the presence or absence of compounds 45-55 and 19 (FIG. 28), compounds 56-61 and 19 (FIG. 29) and compounds 62-66 (FIG. 30) at 5 μM in CHOK1 cells. […] The inhibitory concentrations of compounds 53 (FIG. 31) and compounds 58 and 61 (FIG. 32) were determined.

Another experiment has as its system RPMI8226 cells. The experiment can be described thus: RPMI8226 cell growth, MTT assay. It counts as cell-based, human. The note with it: 5 μM, 48 hours. As to the method:
10,000 MOLT-4 cells (FIGS. 35A-35C) and 20,000 RPM18226 cells (FIGS. 35D-35F) were seeded onto 96 well plate in RPMI 1640 medium containing 5% FBS or fat-free charcoal treated serum (FF-FBS) for 24 hours at 37 C. MOLT-4 and RPM18226 cells were treated for additional 48 hours with different concentrations of compound 19 (None control without DMSO, Vehicle with DMSO, 1, 2, 5, 10 and 20 μM in DMSO; RPM18226 cells also were treated with 3 μM in DMSO). At the end of 48 hours cells were subjected to MTT assay to determine viability. Values are depicted as means±SD; *P<0.05.
20,000 MOLT-4 cells (FIGS. 36A-36C) and 20,000 RPM18226 cells (FIGS. 36D-36F) cells were seeded onto 96 well plates in RPMI 1640 Medium containing 5% Fetal bovine serum (FBS) or 5% fat free charcoal treated serum (FF-FBS) for 24 hours at 37 C. Cells then were treated for additional 48 hours with different concentrations of compound 17 (None control without DMSO, Vehicle with DMSO, 1, 2, 3, 5, 10 and 20 μM in DMSO). At the end of the 48 hours treatment cells were subjected to MTT assay to determine viability. Values are depicted as means±SD (n=3); **P<0.001; ***P<0.0001.
RPM18226 cells were grown under the same conditions as the MOLT-4 cells. 20,000 cells were seeded into 96 well plates for 24 hrs prior to treatment with increasing concentrations of compound 19 as described for MOLT-4 cells. […]
On the technique in general: Formazan colour is commonly taken as a measure of viable cells.

Where [3] appears, read: entries 1, 19-34 (FIG. 16), None = 15.0759.

Consider `CCCc1cc(-c2nc(-c3ccc(C)cc3)cs2)ccn1` [Compound 1, 2-propyl-4-(4-p-tolylthiazol-2-yl)pyridine], for which the Inhibition of adipogenesis result in the experiment with 3T3-L1 cells is “+”. Also, the “activation of the SRE-controlled luciferase reporter gene by endogenous SREBPs” value in the experiment on endogenous SREBPs [1] (HEK293 cells, lipid-free serum, varied concentrations) is given as “decreased in a concentration dependent manner”. For the same compound, the “ability of exogenously expressed mature form of SREBP-1 to activate the reporter gene” value in the experiment on endogenous SREBPs [1] (HEK293 cells, pCMV-SREBP-1c + pSRE-Luc) was “failed to impair”. The Luc/Gal in the experiment on endogenous SREBPs [1] (setting [3]) came out at 7.5537; with endogenous SREBPs [1] (entries 1, 35-39 (FIG. 17), None = 18), 9.414; with endogenous SREBPs [1] (entries 1, 40-44 (FIG. 17), None = 8.2181), 3.4437; in the experiment on endogenous SREBPs [1] (entries 1-18 (FIG. 15), none = 9.4426), 6.2297. For the same compound, the “activation of the SRE luciferase reporter gene by endogenous SREBPs” value in the experiment on endogenous SREBPs [2] (CHO-K1 cells, lipid-free serum) is given as “decreased activation of the reporter gene”.
In general, inhibition refers to the percentage by which the read-out fell short of the control. For `CCCc1cc(-c2nc(-c3ccc(NS(C)(=O)=O)cc3)cs2)ccn1` [Compound 19, N-(4-(2-(2-propylpyridin-4-yl)thiazol-4-yl)phenyl)methanesulfonamide], in the experiment on 3T3-L1 cells, the Inhibition of adipogenesis entry is listed as “+”. For the same compound, the Luc/Gal in the experiment on endogenous SREBPs [1] (setting [3]) is given as 4.1981. For the same compound, the “growth inhibition in 5% FF FBS relative to 5% FBS” value in the experiment with RPMI8226 cells was “about 1.5”. In addition, the inhibition at 5 µM in the experiment with endogenous SREBPs [2] (Cricetulus griseus, CHO-K1, 5 μM in CHOK1 cells) is roughly 45%.
